Measured values published in EP0039265A1, “Medicine containing a biflavanone compound” (SCIENCE UNION ET Cie SOCIETE FRANCAISE DE RECHERCHE MEDICALE, priority 1980, dated 1981).
pIC50: −log10 of the molar value.

Columns and labels:
[1] = target: T1, aldose-réductase extraite de cristallins de rats (Rattus norvegicus, UniProt P07943); test: Aldose reductase inhibition in vitro (NADPH disappearance); format: biochemical; conditions: rat lens enzyme, pH 7, 25°C, 10 min preincubation, substrate aldéhyde d-glycérique; read-out: inhibition à 50 %
T1 construct: l'aldose-réductase extraite de cristallins de rats; from tissue; host or cells: rat lens (CD River rats)
Procedure: L'activité inhibitrice d'aldose-réductase des composés de la présente invention a été mise en évidence par des essais in vitro sur l'aldose-réductase […] selon la technique […] et J.H. KINOSHITA, J. Biol. Chem. 240 (1965) 877, […] et J.H. KINOSHITA, Biochemical Pharmacolo- gy 5 (1976) 2505-2613. : La biflavanone (I), mise en suspension dans du tampon pH 7, est placée en incubation à 25°C dans un […] bouché contenant l'aldose-réductase […] CD River. Après 10 mn de contact, le substrat ([…] introduit dans la cuve deré- action. La cinétique enzymatique est appréciée par la disparition, du milieu, du co-facteur Ac. Nicotinamide-adénine diphosphorique réduite (NADPH) selon la réaction : [drawing 6] On calcule l'activité enzymatique par détermination de la quantité de NADPH disparue. Les résultats sont exprimés en pourcentage de l'activité enzymatique de la préparation en l'absence de tout inhibiteur. Dans ces conditions on peut déterminer, par exemple, la dose minimale qui inhibe à 50 % l'activité enzymatique.

perméabilité capillaire = test: Lefebvre technique: appearance of a dye at an intradermal histamine injection site; format: in vivo; conditions: intraperitoneal 100 mg/kg, rat
Procedure: D'autres tests, utilisés chez le rat, ont confirmé les possibilités de la biflavanone dans la diminution de la perméabilité capillaire par rapport aux produits de référence classiques, et notamment les tests réalisés selon la technique de […]. Soc. Biol. 1, 183 (1962)] qui consiste à observer l'apparition d'un colorant au niveau d'une injection intradermique d'histamine. Il a été constaté que l'infection intrapéritonéale de 100 mg/kg de biflavanone (I) […]'apparition de la coloration de 70 % . La rutine a la même dose ne provoque qu'un retard de 12 %

[2] = test system: perméabilité des parois des vaisseaux sanguins; test: Ambrose and De Eds method: time of appearance of Trypan blue at chloroform-irritated skin; format: in vivo, lapin; conditions: voie orale, suspension, rabbit, maximum of activity about 6 to 7 h after administration
Procedure: Nous avons utilisé une méthode dérivée de celle décrite par AMBROSE et DE EDS [J. Pharm. Exp. Ther. 90, 359 (1947)] . Un lapin mâle fauve, d'un poids compris entre 2,0 et 2,5 kg, est épilé sur toute la région ventrale à l'aide d'une pâte au sulfure de baryum. Le lendemain l'animal reçoit, en injection intraveineuse 25mg/kg d'une'solution aqueuse de Bleu Trypan à 1 p. 100. Trente minutes après cette injection,on applique pendant 30 secondes un tampon de coton de 1,2 cm de côté, imbibé de chloroforme, en deux ou trois points de la zone êpi- lée, et on note le temps d'apparition de la couleur bleue.
Ce temps doit être sensiblement constant quel que soit le point d'application du tampon et traduit la plus ou moins grande rapidité avec laquelle le colorant quitte le courant sanguin pour imprégner les tissus sous-cutanés.
Le produit à tester est alors aussitôt administré soit par voie intra-péritonéale, soit par voie orale. L'agent irritant est appliqué de nouveau, à des intervalles de quinze minutes, en d'autres points de la zone épilée : on note à chaque fois le temps d'apparition de la coloration bleue.
On opère en principe sur des lots de sept lapins par dose et par produit. Il est à noter que : • - la réponse à l'agent irritant n'étant pas forcément identique selon le point d'application sur l'abdomen, il faut faire varier systématiquement "les points témoins" et les "points traités" d'un lapin à l'autre; • - il faut toujours considérer le temps d'apparition de la coloration bleue et non le temps de son développement complet; • - au bout d'une heure d'expérience, et à chaque heure ensuite, il faut refaire une injection intraveineuse de Bleu Trypan de 1ml de solution aqueuse à 1 p.100; • - chaque lapin est son propre témoin.
Le protocole opératoire précédent a été utilisé et les doses suivantes ont été administrées : 500 mg et 1.000 mg/kg. La biflavanone (I) a été ingérée sous forme de solution aqueuse additionnée de 5 % de gomme adragante. Les résultats sont évalués en pourcentage d'augmentation du temps d'apparition de la couleur bleue au niveau du point d'application par rapport au temps de base mesuré avant traitement, et comparés à des substances de référence administrées dans les mêmes conditions catéchine hydrate, hespéridine, quercétine, rutine. Les résultats sont consignés dans le tableau ci-dessous, le maximum d'activité étant obtenu 6 à 7 heures environ après l'administration du produit.

résistance capillaire = test: Parrot method: capillary resistance under vitamin P-deficient diet; format: in vivo; conditions: injection of 50 mg/kg; cobaye; mean of 10 animals; measured 3 to 48 h after administration
Excerpt: Pour mettre en évidence l'action sur la résistance capillaire, nous avons utilisé […]. PARROT et coll. [C.R. Soc. Biol. 140 750 (1946)]. Elle consiste à étudier les variations de la résistance capillaire chez le cobaye soumis à un […] vitaminique P(C2), mais équilibré en vitamine C. La résistance capillaire est mesurée au niveau de la région lombaire en appliquant sur la peau, préalablement épilée, une ventouse de verre de 5 mm de diamètre. On détermine la valeur de la dépression, exprimée en cm de mercure; qu'il faut réaliser pour […], au bout de 50 secondes environ, 3 […] sur la surface entourée. Cette dépression […] comprise entre 25 et 35 cm de mercure, mais elle chute à 10 cm de Hg chez les animaux soumis au […]é pendant 10 jours. […] L'élévation de la résistance capillaire et sa durée sont […]- quement par la valeur de la surface obtenue en portant sur un système de coordonné[…]. On a constaté […] surface est de 20,8 cm ^2 après injection de 50 mg/kg de biflavanone (I), […] que la même dose de rutine ne donne que 6,42 cm^2.

[3] = High-dose toxicity, intraperitoneal administration, rat; conditions: in vivo, ip, rat Sprague Dawley, male, read-out: dose maximale toujours tolérée
Procedure: Elle a été déterminée sur des groupes homogènes de souris Swiss et NMRI mâles, de race pure, pesant de 19 à 22 g et sur des groupes homogènes de rats Sprague Dawley màles adultes d'un poids moyen de 300 g..
En administration intrapéritonéale, aussi bien chez le rat que chez la souris, la dose maximale toujours tolérée est supérieure à 3 et 4.000 mg/kg.

[4] = test system: perméabilité des parois des vaisseaux sanguins; test: Beach and Steinetz method: Trypan blue content of chloroform-irritated skin; format: in vivo, lapin; conditions: rabbit
Excerpt: La technique d'AMBROSE et DE EDS a été modifiée afin de mesurer la coloration de la tache selon la technique de BEACH et STEINETZ [(J. Pharm. Expl. Therap. (1961) 131, n° 1, p. 400 à 406)]. Des lapins New-Zealand mâles de 2,5 kg reçoivent une injection IP de produit à tester, ou d'eau gommée pour les témoins.
Trente minutes après, sur la peau abdominale.préalablement épilée, un tampon de chloroforme est appliqué trente secondes, afin de créer une irritation locale qui favorise la diffusion du colorant hors des capillaires vers les liquides interstitiels.
Immédiatement après,une solution de Bleu Trypan à 25mg/kg est injectée dans la veine marginale de l'oreille. Une tache bleue apparait à l'endroit irrité. Le lapin est tué par Einjection intracardiaque de pentobarbital, 30 minutes après l'injection du Bleu Trypan.
Les fragments de peau sont prélevés, posés et laissés à digérer 24 heures dans HCI pur. Le Bleu Trypan est dosé selon la technique de BEACH et STEINETZ.
Après la dissolution complète, l'addition de 3 ml de chlorure de Benzalkonium en solution aqueuse à 12,80 % complexe le colorant qui est ensuite repris par 5 ml de chloroforme. Après centrifugation, la phase chloroformique bleue est rapidement soutirée et filtrée, la lecture spectrophotométrique est faite immédiatement afin d'éviter une concentration du colorant par évaporation du chloroforme. Les densités optiques à 620 mn sont traduites en µg de bleu/100 mg de tissu.
Le protocole opératoire précédent a été utilisé et les doses 200 et 400 mg ont été administrées. Les résultats, exprimés en ng de colorant par 100 g de peau fraiche sont donnés dans le tableau suivant : […]

[5] = I.P. 200 mg/kg, eau gommée control 4,62 ± 1,4
[6] = I.P. 400 mg/kg, eau gommée control 5,01 ± 2,3

| SMILES | pIC50 [1] | Augmentation % du temps d'apparition par rapport au temps témoin ([2]; 1.000 mg/kg) [%] | Augmentation % du temps d'apparition par rapport au temps témoin ([2]; 500 mg/kg) [%] | other results |
| --- | --- | --- | --- | --- |
| O=C(O)CN1C(=O)c2cccc3cccc(c23)C1=O [Alrestatine, alrestatine] | 6.00 | – | – | – |
| O=C1c2c(O)cc(O)c(C3C(=O)c4c(O)cc(O)cc4OC3c3ccc(O)c(O)c3)c2OC(c2ccc(O)c(O)c2)C1O (stereo not drawn) [Biflavanone (I), manniflavone] | 6.60 to 7.00 | 125 | 50 | retard de l'apparition de la coloration (perméabilité capillaire): 70%; surface (élévation de la résistance capillaire et sa durée, planimétrie) (résistance capillaire): 20,8 cm^2; MTD [3]: > 3 mg/kg; CON[…] BLEU TRYPAN [4, 5]: 4 ± 2,3 µg/100 g DE PEAU; CON[…] BLEU TRYPAN [4, 6]: 3,1 ± 2,3 µg/100 g DE PEAU |
| Oc1cc(O)c2c(c1)O[C@H](c1ccc(O)c(O)c1)[C@@H](O)C2 [Catéchine hydrate] | – | 50 | 38 | – |
| COc1ccc(-c2cc(=O)c3c(O)cc(O[C@@H]4O[C@H](CO[C@@H]5O[C@@H](C)[C@H](O)[C@@H](O)[C@H]5O)[C@@H](O)[C@H](O)[C@H]4O)cc3o2)cc1O [Diosmine, diosmine] | 4.00 to 4.30 | – | – | CONCENTRATION DU BLEU TRYPAN [4, 5]: 2,66 ± 2 µg/100 g DE PEAU; CONCENTRATION DU BLEU TRYPAN [4, 6]: 2,50 ±1,6 µg/100 g DE PEAU |
| COc1ccc([C@@H]2CC(=O)c3c(O)cc(O[C@@H]4O[C@H](CO[C@@H]5O[C@@H](C)[C@H](O)[C@@H](O)[C@H]5O)[C@@H](O)[C@H](O)[C@H]4O)cc3O2)cc1O [Hespé-ridine, hespéridine] | – | 0 | 0 | – |
| O=c1c(O)c(-c2ccc(O)c(O)c2)oc2cc(O)cc(O)c12 [Quercé-tine, quercétine] | – | 0 | 0 | – |
| C[C@@H]1O[C@@H](OC[C@H]2O[C@@H](Oc3c(-c4ccc(O)c(O)c4)oc4cc(O)cc(O)c4c3=O)[C@H](O)[C@@H](O)[C@@H]2O)[C@H](O)[C@H](O)[C@H]1O [Rutine, rutine] | – | 77 | 27 | retard de l'apparition de la coloration (perméabilité capillaire): 12%; surface (élévation de la résistance capillaire et sa durée, planimétrie) (résistance capillaire): 6,42 cm^2; CONCENTRATION DU BLEU TRYPAN [4, 5]: 3,6 ± 1,8 µg/100 g DE PEAU; CONCENTRATION DU BLEU TRYPAN [4, 6]: 3,2 ± 2 µg/100 g DE PEAU |
